Consider four compounds from patent US5573772A, “Methods for protecting tissues and organs from ischemic damage” (priority 1994, dated 1996).

The subject of this test is isolated rabbit hearts. The test is described as follows: Infarct size after 30 min coronary branch occlusion and 120 min reperfusion in isolated rabbit hearts, Example 1. On the set-up: species or system rabbit (New Zealand white). Particulars: for Infarct size compared with control group: ADO 10 uM or APNEA 50 nM, p<0.01. Here is the method: These solutions were then diluted in Krebs buffer to the final concentration just before the experiments started. New Zealand white rabbits of either sex, between 1.4-2.4 kg, were anesthetized with intravenous sodium pentobarbital (30 mg/kg). The neck was opened and a tracheotomy was performed. The rabbits were ventilated with 100% oxygen via a positive pressure respirator (MD industries, Mobile, Ala.). Ventilation rate was 30-35 breaths per minute, and tidal volume was approximately 15 ml. A left thoracotomy was performed in the fourth intercostal space and pericardium was opened to expose the heart. A 2-0 silk suture with an RB taper needle was passed around a branch of the left coronary artery, and the end of the silk were threaded through a small vinyl tube to form a snare. The heads were quickly excised and mounted on a Langendorff apparatus and perfused at constant pressure with Krebs buffer containing (in mM) 118.5 NaCl, 4.7 KCl, 1.2 MgSO4, 1.2 K2 PO4, 24.3 NaHCO3, 2.5 CaCl2 and 10 glucose. […] The temperature of the perfusate was maintained at 37° C. The perfusion pressure was kept at 75 mm Hg. Pacing electrodes were placed on the right atrium and all hearts were paced at 200 beats/minute with pulses of 5 volts and 4 msec duration to keep the heart rate constant. A fluid-filled latex balloon connected to a transducer via PE240 tubing was inserted into the left ventricle. Balloon volume was adjusted to set the left ventricular diastolic pressure at 10 mm Hg at the beginning of the experiment. Total coronary artery flow was measured by timed collection of buffer from the chamber into a graduated cylinder. Regional ischemia was effected by pulling the snare tight and clamping the tube with a hemostat. Global ischemia was performed by clamping the inflow tubing of the Langendorff apparatus. Reperfusion was achieved by releasing the restriction. All hearts were allowed to equilibrate for 20 minutes before the experiments were started. Heart rate (HR), coronary flow (CF) and left ventricular developed pressure (LVDP) were recorded at the point just before and at the end of each treatment with the pacing momentarily turned off. […] The hearts were removed from the Langendorff apparatus, weighed and then frozen. The hearts were cut into 2 mm transverse slices. The slices were thawed and incubated in 1% triphenyl tetrazolium chloride (TTC) in pH 7.4 buffer for 20 minutes at 37° C. TTC reacts with NADH and dehydrogenase enzymes and stains all tissue still having them to a deep red color. […] After staining, the area of infarcted tissue (TTC negative tissue) and the risk zone (area lacking fluorescence under ultraviolet light) in each slice were traced. The area of infarct and risk zone were determined by planimetry of the tracing. The volume of infarcted myocardium and myocardium at risk was then calculated by multiplying the planimetered areas by the slice thickness. The animals were divided into 10 groups. The hearts in all groups were subjected to 30 minutes of coronary branch occlusion followed by 120 minutes of reperfusion. Control group (CON, n=10) only experienced the above-mentioned 30 minutes of regional ischemia while the preconditioned group (PC, n=12) received an additional 5 minutes of global ischemia plus 10 minutes of reperfusion prior to the 30 minute occlusion. In the adenosine group (ADO, n=6) and the APNEA group (APNEA, n=5), the hearts were exposed to 10 uM adenosine and 50 nM APNEA respectively, for 5 minutes as a substitute for ischemic preconditioning. The drug was allowed to washout for 10 minutes before the 30 minute ischemia was started. In groups receiving SPT, the blocker was included in the perfusate for 15 minutes at 100 uM starting 5 minutes before the exposure of ADO (ADO-SPT group, n=6) or APNEA (APNEA-SPT group, n=5) or 5 minutes before and after 5 minutes of preconditioning ischemia (PC-SPT group, n=5). […] All results are expressed as group mean±SEM. […]

In the case of `Nc1ncnc2c1ncn2[C@@H]1O[C@H](CO)[C@@H](O)[C@H]1O` [ADO, Adenosine], the “Infarct size compared with control group” value is “significantly smaller than those in the control group”. The “Infarct size (area at risk infarcted)” value (ADO 10 uM, 5 minutes, control 29.4±2.9%, PC 10.8±2.8%) is 11.4±2.1%.

As to `Nc1ccc(CCNc2ncnc3c2ncn3[C@@H]2O[C@H](CO)[C@@H](O)[C@H]2O)cc1` [APNEA, N^6-(2-(4-aminophenyl)ethyl) adenosine], the “Infarct size compared with control group” value is listed as “significantly smaller than those in the control group”. For the same compound, where the note is “APNEA 50 nM, 5 minutes, control 29.4±2.9%”, the “Infarct size (area at risk infarcted)” value stood at 11.9±2.3%.

For `CCCn1c(=O)c2[nH]c(C3CCCC3)nc2n(CCC)c1=O` [DPCPX, 8-cyclopentyl-1,3-dipropylxanthine], the “Infarct size (area at risk infarcted)” value reads like this: (DPCPX 200 nM + ADO 10 uM (ADO-DPCPX)) 14.4±7.0%; (DPCPX 200 nM + APNEA 50 nM (APNEA-DPCPX)) 8.7±1.7%; (DPCPX 200 nM + PC (PC-DPCPX)) 15.6±7.8%.

As to `Cn1c(=O)c2[nH]c(-c3ccc(S(=O)(=O)O)cc3)nc2n(C)c1=O` [SPT, 8-(p-Sulfophenyl)-theophylline], the “Infarct size (area at risk infarcted)” value is, setting by setting: (SPT 100 uM + ADO 10 uM (ADO-SPT)) 29.8±3.4%; (SPT 100 uM + APNEA 50 nM (APNEA-SPT)) 32.8±3.3%; (SPT 100 uM + PC (PC-SPT)) 33.8±2.4%.
